Test results from patent US20250000855A1, “USE OF APOMORPHINE AS THERAPEUTIC AGENT FOR NECROPTOSIS-RELATED DISEASES” (INDUSTRY-ACADEMIC COOPERATION FOUNDATION, YONSEI UNIVERSITY, priority 2021, published 2025).

Key:
[1] = tested on: MLKL translocation in transfected THP-1 cells; test: Flag-MLKL translocation to cell membrane, immunofluorescent staining, confocal microscopy; type: cell-based, human; details: transfected THP-1 cells stimulated with compound and TBZ, FIG. 3
Experimental: A human monocyte cell line THP-1 and a human colon cancer cell line HT-29 were maintained in a 10% FBS-Roswell Park Memorial Institute (RPMI) 1640 medium supplemented with 2 mM L-glutamine, 100 U/ml penicillin, and 100 μg/ml streptomycin at 37° C. under a 5% CO2 condition. The THP-1 cells were differentiated into macrophages in an RPMI 1640 medium containing 500 nM Phorbol 12-myristate 13-acetate (PMA) for 3 hours. Human mixed lineage kinase domain-like protein (MLKL)-flag plasmid (Sino Biological, HG12810-CF) transfection was performed using the electroporation system (Invitrogen) of MicroPorator-mini (Digital Bio).
Cells were seeded on cell culture-treated glass chamber slides. The cells were pretreated with Z-VAD, BV6, and the indicated compound for 1 hour, and then treated with TNF-α and BV6 overnight. Subsequently, the cells were washed with phosphate-buffered saline (PBS) and fixed in 4% paraformaldehyde for 10 minutes. Before incubation for 10 minutes in 0.25% Triton X-100 in PBS, the cells were washed three more times with PBS. The cells were blocked with 5% bovine serum albumin (BSA) in PBS for 30 minutes and stained using an anti-Flag (Sigma, F7425-2MG) antibody. The nuclei were stained with DAPI (Invitrogen, 00-4959-52). Images were captured using a confocal microscope (Olympus, FV1000). […]

MLKL oligomerization = MLKL oligomerization (tetramer and octamer bands) by non-reducing or reducing SDS-PAGE; type: cell-based, human; details: cytoplasmic and membrane fractions, necroptosis induced with TBZ, FIG. 2 / FIG. 6A
Experimental: Cells were pretreated with Z-VAD (invivoGen, tlrl-vad) and a compound for 1 hour, and necroptosis was induced with TNF-α (ATGen, TNF0501) and BV6 (Biovision, B1332-5) for the indicated time. The prepared cells were appropriately treated according to analysis (Z-VAD: carbobenzoxy-valyl-alanyl-aspartyl, TNF-α: tumor necrosis factor-α, BV6: 4,4′-(1,6-hexanediyl)bis[N-methyl-L-alanyl-(2S)-2-cyclohexylglycyl-L-prolyl-β-phenyl-L-phenylalaninamide)
Cells were treated with a drug candidate and then collected using centrifugation at 4° C. and 1,500×g for 5 minutes. A supernatant was centrifuged again at 4° C. and 1,500×g for 5 minutes to remove remaining debris, concentrated at 4° C. and 14,000×g for 30 minutes using Amicon ultra-0.5 centrifugal filter unit 10K (Millipore, UFC501096), and stored. […] The extracted protein concentration was measured using a bicinchoninic acid (BCA) protein assay kit (Thermo Fisher Scientific, 23225). […]
To test whether the tetramer and octamer formation of p-MLKL for pore formation in the cell membrane is inhibited by apomorphine (APO), cells that had been treated with each molecule for the indicated time were separated into cytoplasmic and membrane fractions and analyzed through non-reducing or reducing sodium dodecyl sulfate-polyacrylamide gel electrophoresis (SDS-PAGE), and then investigated with specific antibodies (Experimental Method 1-6). […]

MLKL protein = target: T1, MLKL protein (Homo sapiens, UniProt Q8NB16); test: Surface plasmon resonance (SPR) analysis, binding to MLKL protein; details: MLKL immobilized on CM5 chip, Biacore T200, 25° C., 10 mM HEPES pH 7.4
T1 construct: purchased Abcam ab241453
T1 sequence (Q8NB16 1-471): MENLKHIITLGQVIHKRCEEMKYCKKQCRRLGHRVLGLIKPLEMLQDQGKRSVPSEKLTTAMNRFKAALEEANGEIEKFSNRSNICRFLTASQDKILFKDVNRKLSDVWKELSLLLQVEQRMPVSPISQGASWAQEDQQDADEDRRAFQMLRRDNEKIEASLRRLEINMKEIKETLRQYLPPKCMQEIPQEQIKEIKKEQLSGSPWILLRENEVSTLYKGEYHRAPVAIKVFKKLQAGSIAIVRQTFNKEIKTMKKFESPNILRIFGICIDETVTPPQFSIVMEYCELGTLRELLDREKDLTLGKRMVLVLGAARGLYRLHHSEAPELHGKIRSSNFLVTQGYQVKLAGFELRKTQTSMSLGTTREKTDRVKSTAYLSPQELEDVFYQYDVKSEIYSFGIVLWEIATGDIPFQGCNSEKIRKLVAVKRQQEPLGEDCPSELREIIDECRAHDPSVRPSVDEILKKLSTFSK
Experimental: (§1) The interaction between MLKL and apomorphine (=APO) was detected through surface plasmon resonance (SPR) analysis using Biacore T200 (GE Healthcare). For pH scouting, a buffer consisting of 10 mM sodium acetate (pH 4.0 to 6.0) was used. MLKL protein (Abcam, ab241453), and MLKL N-term (amino acids 1-154) protein that had been purified in a laboratory were immobilized on the surface of a sensor chip CM5 (GE Healthcare) under scouted buffer conditions. To deduce an Rligand value, a coupling process was performed based on the molecular weights of MLKL, MLKL N-term domain (MW ligand), and APO (MW analyte). Oxidized (24 hr, RT incubation) and reduced (+DTT(DL-dithiothreitol)) forms of APO were injected into a running buffer (flow rate: 10 μl/min) consisting of 10 mM HEPES (pH 7.4) at 25° C. A sensorgram was recorded and analyzed in real time using control software provided by the Biacore T200 system itself. Six or more concentrations of APO were used in combination, and each KD value was derived. All run data was calculated using BIAevaluation Software (GE Healthcare).
(§2) SPR analysis was used to analyze the interaction pattern between APO and the MLKL protein (Experimental Method 1-10). […] Here, the analysis was performed by binding MLKL and the MLKL N-term domain protein immobilized on a CM5 chip with APO having six concentrations.

[2] = target: T2, MLKL N-term domain (amino acids 1-154) (Homo sapiens, UniProt Q8NB16); test: Surface plasmon resonance (SPR) analysis, binding to MLKL N-term domain; details: MLKL N-term domain immobilized on CM5 chip, Biacore T200, 25° C., 10 mM HEPES pH 7.4
T2 construct: MLKL N-term (amino acids 1-154) protein that had been purified in a laboratory; made in house
T2 sequence (Q8NB16 1-154): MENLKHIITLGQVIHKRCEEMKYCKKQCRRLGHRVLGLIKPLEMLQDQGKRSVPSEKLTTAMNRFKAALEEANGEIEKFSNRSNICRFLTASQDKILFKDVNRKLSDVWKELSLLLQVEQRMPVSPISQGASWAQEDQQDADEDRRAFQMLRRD
Experimental: as §1, §2

SMILES | distribution of Flag-MLKL signals [1] | intensities of the tetramer and octamer bands of MLKL (MLKL oligomerization) | Kd (MLKL protein) | Kd [2]
CN1C(=O)C(Cc2c[nH]c3ccccc23)NC1=S (stereo not shown) [NEC-1, necrostatin-1] | mostly distributed in the cytoplasm | – | – | –
CN1CCc2cccc3c2[C@H]1Cc1ccc(O)c(O)c1-3 [reduced APO] | – | no change | 244 nM | 1.14 mM
